Read-outs that look alike come from different tables or passages of the source.
What was measured:
[1] = test system: A549 (human lung carcinoma); experiment: MTT cytotoxicity assay, A549 cell line; format: cell-based; details: 72 hours; for inhibition at 0.1 µM / inhibition at 0.25 µM / inhibition at 0.5 µM / inhibition at 1 µM: Homo sapiens
Procedure: (§1) Artesunate and dihydroartemisinin were purchased from AK Scientific (Union City, Calif.). CellTiter 96® Non-Radioactive Cell Proliferation Assay (MTT) reagent was purchased from Promega (Madison, Wis.). A549 (human lung carcinoma), HeLa (human cervical carcinoma), MOLT4 (human T-cell acute lymphoblastic leukemia) were purchased from American Type Culture Collection (Manassas, Va.) and cultured in Ham's F-12 K media supplemented with 10% FBS, 100 μg/ml of penicillin and 100 μg/ml of streptomycin. The culture was maintained at 37° C. in a humidified atmosphere of 5% CO2 and 95% air.
(§2) Both reference and test compounds were dissolved in DMSO in a 10-concentration and 3-fold serial dilution format. 50 nl stock solution of test compounds or 25 nl of reference compounds were delivered from the source plate to the wells of 384-well cell culture plates. 25 μl of culture medium containing 2,000 corresponding cancer cells were added to the wells. The plates were incubated at 37° C. in a humidified atmosphere of 5% CO2 and 95% air for 72 hours. 4 μl of MTT Dye Solution was added to each well and the plates were incubated at 37° C. in a CO2 incubator for 4 hours. After incubation, the formazan was produced in the cells. 25 μl of Solubilization/Stop Solution was added to each well and the plates were incubated for another 1 hour at 37° C. in a CO2 incubator to dissolve the formazan crystals.
(§3) The absorbance of each sample was measured at 590 nm using Envision 2104 Multilabel Reader (PerkinElmer, Santa Clara, Calif.). The cell viability was determined based on the quantification of the color intensity in each culture well. The inhibitory curves were plotted and the IC50 values were calculated using GraphPad Prism 4 program based on a sigmoidal dose-response equation.

[2] = test system: HeLa (human cervical carcinoma); experiment: MTT cytotoxicity assay, HeLa cell line; format: cell-based; details: read-out: IC50 HeLa
Procedure: as §1, §2, §3

[3] = test system: MOLT4 (human T-cell acute lymphoblastic leukemia); experiment: MTT cytotoxicity assay, MOLT4 cell line; format: cell-based; details: read-out: IC50 MOLT4
Procedure: as §1, §2, §3

HepG2 cell line = experiment: MTT cytotoxicity assay, HepG2 cell line; format: cell-based
Procedure: as §2, §3

23 leukemia cell lines = details: average over 23 leukemia cell lines, relative to artesunate; cited from earlier work
cytomegalovirus = details: relative to artesunate; cited from earlier work
[4] = Homo sapiens, MOLT-4, MOLT4, 72 hours, MTT
[5] = HepG2, MTT, read-out: IC50 HepG2
[6] = Homo sapiens, HepG2, MTT, read-out: IC50 HepG2

## C[C@H]1[C@H](OC(=O)CCC(=O)OCCN(CCOC(=O)CCC(=O)O[C@@H]2O[C@@H]3O[C@]4(C)CC[C@H]5[C@H](C)CC[C@@H]([C@H]2C)[C@@]35OO4)CCOC(=O)CCC(=O)O[C@@H]2O[C@@H]3O[C@]4(C)CC[C@H]5[C@H](C)CC[C@@H]([C@H]2C)[C@@]35OO4)O[C@@H]2O[C@@]3(C)CC[C@H]4[C@H](C)CC[C@@H]1[C@@]24OO3 [Compound 1]
[1]; 0.1 μM
  inhibition at 0.1 µM: 10%
[1]; 0.25 μM
  inhibition at 0.25 µM: 14%
[1]; 0.5 μM
  inhibition at 0.5 µM: 20%
[1]; 1.0 μM
  inhibition at 1 µM: 47%
[2]; Homo sapiens, 72 hours, MTT
  IC50: 1720 nM
[3]; [4]
  IC50: 318 nM

## C[C@H]1[C@H](OC(=O)CC(CC(=O)O[C@@H]2O[C@@H]3O[C@]4(C)CC[C@H]5[C@H](C)CC[C@@H]([C@H]2C)[C@@]35OO4)C(=O)O[C@@H]2O[C@@H]3O[C@]4(C)CC[C@H]5[C@H](C)CC[C@@H]([C@H]2C)[C@@]35OO4)O[C@@H]2O[C@@]3(C)CC[C@H]4[C@H](C)CC[C@@H]1[C@@]24OO3 (some centres unmarked) [Compound 14]
HepG2 cell line; [5]
  IC50: 1300 nM

## CC1CCC2C(C)C(OC(=O)CCC(=O)OCC(COC(=O)CCC(=O)OC3OC4OC5(C)CCC6C(C)CCC(C3C)C46OO5)OC(=O)CCC(=O)OC3OC4OC5(C)CCC6C(C)CCC(C3C)C46OO5)OC3OC4(C)CCC1C32OO4 (centres unmarked) [Compound 3]
[2]; 72 hours, MTT
  IC50: 630 nM
[3]; MOLT4, 72 hours, MTT
  IC50: 60 nM
HepG2 cell line; [5]
  IC50: 830 nM

## C[C@H]1[C@H](OC(=O)CCC(=O)OCC(COC(=O)CCC(=O)O[C@@H]2O[C@@H]3O[C@@]4(C)CC[C@H]5[C@H](C)CC[C@@H]([C@H]2C)[C@@]35OO4)(COC(=O)CCC(=O)O[C@@H]2O[C@@H]3O[C@@]4(C)CC[C@H]5[C@H](C)CC[C@@H]([C@H]2C)[C@@]35OO4)NC(=O)OC(C)(C)C)O[C@@H]2O[C@@]3(C)CC[C@H]4[C@H](C)CC[C@@H]1[C@@]24OO3 [Compound 7]
[1]; 0.1 μM
  inhibition at 0.1 µM: 12%
[1]; 0.25 μM
  inhibition at 0.25 µM: 14%
[1]; 0.5 μM
  inhibition at 0.5 µM: 21%
[1]; 1.0 μM
  inhibition at 1 µM: 40%
[2]; Homo sapiens, 72 hours, MTT
  IC50: 602 nM
[3]; [4]
  IC50: 119 nM

## C[C@H]1[C@H](OC(=O)CCC(=O)OCCN(CCOC(=O)CCC(=O)O[C@@H]2O[C@@H]3O[C@@]4(C)CC[C@H]5[C@H](C)CC[C@@H]([C@H]2C)[C@@]35OO4)CCN(CCOC(=O)CCC(=O)O[C@@H]2O[C@@H]3O[C@@]4(C)CC[C@H]5[C@H](C)CC[C@@H]([C@H]2C)[C@@]35OO4)CCOC(=O)CCC(=O)O[C@@H]2O[C@@H]3O[C@@]4(C)CC[C@H]5[C@H](C)CC[C@@H]([C@H]2C)[C@@]35OO4)O[C@@H]2O[C@@]3(C)CC[C@H]4[C@H](C)CC[C@@H]1[C@@]24OO3 [Compound 15]
[2]; Homo sapiens, 72 hours, MTT
  IC50: 35200 nM
[3]; [4]
  IC50: 275 nM

## C[C@@H]1CC[C@H]2[C@@H](C)C(OC(=O)CN(CC(=O)OC3O[C@@H]4O[C@@]5(C)CC[C@H]6[C@H](C)CC[C@@H]([C@H]3C)[C@@]46OO5)CC(=O)OC3O[C@@H]4O[C@@]5(C)CC[C@H]6[C@H](C)CC[C@@H]([C@H]3C)[C@@]46OO5)O[C@@H]3O[C@@]4(C)CC[C@@H]1[C@]32OO4 (some centres unmarked) [Compound 2]
[1]; 0.1 μM
  Inhibition (%): 12%
[1]; 0.25 μM
  Inhibition (%): 20%
[1]; 0.5 μM
  Inhibition (%): 21%
[1]; 1.0 μM
  Inhibition (%): 40%
[2]; 72 hours, MTT
  IC50: 1140 nM
[3]; MOLT4, 72 hours, MTT
  IC50: 320 nM

## C[C@H]1[C@H](OC(=O)CCC(=O)OCC(COC(=O)CCC(=O)O[C@@H]2O[C@@H]3O[C@@]4(C)CC[C@H]5[C@H](C)CC[C@@H]([C@H]2C)[C@@]35OO4)(COC(=O)CCC(=O)O[C@@H]2O[C@@H]3O[C@@]4(C)CC[C@H]5[C@H](C)CC[C@@H]([C@H]2C)[C@@]35OO4)NC(=O)C(F)(F)F)O[C@@H]2O[C@@]3(C)CC[C@H]4[C@H](C)CC[C@@H]1[C@@]24OO3 [Compound 12]
HepG2 cell line; [6]
  IC50: 7800 nM

## C[C@@H]1CCC2[C@@H](C)[C@@H](CC(COP(=O)(Oc3ccccc3)Oc3ccccc3)C[C@H]3O[C@@H]4O[C@@]5(C)CCC6[C@H](C)CCC([C@H]3C)[C@]64OO5)O[C@@H]3O[C@@]4(C)CCC1[C@@]23OO4 (some centres unmarked) [ART838]
23 leukemia cell lines
  folds more potent than artesunate in inhibiting 23 leukemia cell lines (average): 88 folds
cytomegalovirus
  fold more potent in inhibiting growth of cytomegalovirus than artesunate: 165 fold

## C[C@H]1[C@H](OC(=O)CCC(=O)O)O[C@@H]2O[C@@]3(C)CC[C@H]4[C@H](C)CC[C@@H]1[C@@]24OO3 [Artesunate, reference compound]
[2]; Homo sapiens, 72 h
  IC50: 9570 nM
[3]; Homo sapiens, MOLT-4, 72 h
  IC50: 1010 nM
HepG2 cell line; Homo sapiens, HepG2, read-out: IC50 HepG2
  IC50: 11200 nM

## CC(=O)NC(COC(=O)CCC(=O)O[C@@H]1O[C@@H]2O[C@@]3(C)CC[C@H]4[C@H](C)CC[C@@H]([C@H]1C)[C@@]24OO3)(COC(=O)CCC(=O)O[C@@H]1O[C@@H]2O[C@@]3(C)CC[C@H]4[C@H](C)CC[C@@H]([C@H]1C)[C@@]24OO3)COC(=O)CCC(=O)O[C@@H]1O[C@@H]2O[C@@]3(C)CC[C@H]4[C@H](C)CC[C@@H]([C@H]1C)[C@@]24OO3 [Compound 9]
[2]; Homo sapiens, 72 hours, MTT
  IC50: 360 nM
[3]; [4]
  IC50: 66 nM
HepG2 cell line; [6]
  IC50: 310 nM

## C[C@H]1[C@H](OC(=O)CCC(=O)OCC(COC(=O)CCC(=O)O[C@@H]2O[C@@H]3O[C@@]4(C)CC[C@H]5[C@H](C)CC[C@@H]([C@H]2C)[C@@]35OO4)(COC(=O)CCC(=O)O[C@@H]2O[C@@H]3O[C@@]4(C)CC[C@H]5[C@H](C)CC[C@@H]([C@H]2C)[C@@]35OO4)NC=O)O[C@@H]2O[C@@]3(C)CC[C@H]4[C@H](C)CC[C@@H]1[C@@]24OO3 [Compound 11]
HepG2 cell line; [6]
  IC50: 550 nM

## C[C@H]1[C@H](OC(=O)CCC(=O)NC(COC(=O)CCC(=O)O[C@@H]2O[C@@H]3O[C@@]4(C)CC[C@H]5[C@H](C)CC[C@@H]([C@H]2C)[C@@]35OO4)COC(=O)CCC(=O)O[C@@H]2O[C@@H]3O[C@@]4(C)CC[C@H]5[C@H](C)CC[C@@H]([C@H]2C)[C@@]35OO4)O[C@@H]2O[C@@]3(C)CC[C@H]4[C@H](C)CC[C@@H]1[C@@]24OO3 [Compound 4]
HepG2 cell line; [6]
  IC50: 1790 nM

## C[C@H]1[C@H](OC(=O)CCC(=O)OCCN(CCO)CCN(CCOC(=O)CCC(=O)O[C@@H]2O[C@@H]3O[C@@]4(C)CC[C@H]5[C@H](C)CC[C@@H]([C@H]2C)[C@@]35OO4)CCOC(=O)CCC(=O)O[C@@H]2O[C@@H]3O[C@@]4(C)CC[C@H]5[C@H](C)CC[C@@H]([C@H]2C)[C@@]35OO4)O[C@@H]2O[C@@]3(C)CC[C@H]4[C@H](C)CC[C@@H]1[C@@]24OO3 [Compound 16]
[2]; Homo sapiens, 72 hours, MTT
  IC50: 1110 nM
[3]; [4]
  IC50: 217 nM

## C[C@@H]1[C@@H](OC(=O)CCC(=O)NC(COC(=O)CCC(=O)O[C@@H]2O[C@@H]3O[C@@]4(C)CC[C@H]5[C@H](C)CC[C@@H]([C@H]2C)[C@@]35OO4)(COC(=O)CCC(=O)O[C@@H]2O[C@@H]3O[C@@]4(C)CC[C@H]5[C@H](C)CC[C@@H]([C@H]2C)[C@@]35OO4)COC(=O)CCC(=O)O[C@@H]2O[C@@H]3O[C@@]4(C)CC[C@H]5[C@H](C)CC[C@@H]([C@H]2C)[C@@]35OO4)O[C@H]2O[C@@]3(C)CC[C@@H]4[C@@H](C)CC[C@H]1[C@]24OO3 [Compound 13]
[2]; Homo sapiens, 72 hours, MTT
  IC50: 14200 nM
[3]; [4]
  IC50: 150 nM

## C[C@H]1[C@@H](O)O[C@@H]2O[C@@]3(C)CC[C@H]4[C@H](C)CC[C@@H]1[C@@]24OO3 [Dihydroartemisinin, reference compound]
[1]; 0.25 μM
  inhibition at 0.25 µM: 5%
[1]; 0.5 μM
  inhibition at 0.5 µM: 10%
[1]; 1.0 μM
  inhibition at 1 µM: 20%
[2]; Homo sapiens, 72 hours, MTT
  IC50: 9340 nM
[3]; [4]
  IC50: 680 nM
